Measured values published in paper PMC5564600 (Oncotarget, 2017).

Key:
Assay in all cases: biochemical
Type in all cases: binding
panel of 442 kinases [1] = target: T1, panel of 442 kinases (Homo sapiens, UniProt P36888, K663Q); settings: FLT3(K663Q); for remaining activity at 1 µM: read-out: % of control at 1 µM
T1 construct: purchased Ambit Biosciences (scanMAXX KINOMEscan)
T1 sequence (P36888 27-993 K663Q): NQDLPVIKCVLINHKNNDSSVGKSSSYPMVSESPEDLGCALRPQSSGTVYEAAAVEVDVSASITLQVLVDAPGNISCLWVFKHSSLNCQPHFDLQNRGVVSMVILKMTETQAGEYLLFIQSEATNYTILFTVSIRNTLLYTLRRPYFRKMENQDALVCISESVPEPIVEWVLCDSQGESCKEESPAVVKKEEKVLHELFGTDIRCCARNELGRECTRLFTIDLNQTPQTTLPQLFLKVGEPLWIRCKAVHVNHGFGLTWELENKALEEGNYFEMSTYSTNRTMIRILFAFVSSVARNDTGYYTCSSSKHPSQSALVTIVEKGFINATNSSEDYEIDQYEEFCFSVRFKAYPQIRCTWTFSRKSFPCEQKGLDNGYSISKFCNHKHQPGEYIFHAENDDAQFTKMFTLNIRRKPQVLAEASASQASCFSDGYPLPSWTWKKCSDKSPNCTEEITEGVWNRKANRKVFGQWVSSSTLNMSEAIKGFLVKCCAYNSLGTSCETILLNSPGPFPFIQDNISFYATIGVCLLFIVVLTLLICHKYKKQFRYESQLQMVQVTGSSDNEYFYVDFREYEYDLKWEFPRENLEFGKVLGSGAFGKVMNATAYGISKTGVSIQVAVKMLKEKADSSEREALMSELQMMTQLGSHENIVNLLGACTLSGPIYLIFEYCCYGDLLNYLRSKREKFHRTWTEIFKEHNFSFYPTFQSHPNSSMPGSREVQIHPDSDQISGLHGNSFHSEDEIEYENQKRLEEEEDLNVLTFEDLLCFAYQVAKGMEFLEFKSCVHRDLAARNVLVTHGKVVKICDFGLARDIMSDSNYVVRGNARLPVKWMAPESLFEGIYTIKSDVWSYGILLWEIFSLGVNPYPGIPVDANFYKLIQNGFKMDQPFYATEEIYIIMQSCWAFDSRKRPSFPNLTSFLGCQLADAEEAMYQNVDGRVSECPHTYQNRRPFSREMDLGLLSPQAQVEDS

panel of 442 kinases [2] = target: T2, panel of 442 kinases (Homo sapiens, UniProt Q00535); settings: CDK5; for remaining activity at 1 µM: read-out: % of control at 1 µM
T2 construct: purchased Ambit Biosciences (scanMAXX KINOMEscan)

panel of 442 kinases [3] = target: T3, panel of 442 kinases (Homo sapiens, UniProt O15146); settings: kinase MUSK; for remaining activity at 1 µM: read-out: % of control at 1 µM
T3 construct: purchased Ambit Biosciences (scanMAXX KINOMEscan)
T3 sequence (O15146 24-869): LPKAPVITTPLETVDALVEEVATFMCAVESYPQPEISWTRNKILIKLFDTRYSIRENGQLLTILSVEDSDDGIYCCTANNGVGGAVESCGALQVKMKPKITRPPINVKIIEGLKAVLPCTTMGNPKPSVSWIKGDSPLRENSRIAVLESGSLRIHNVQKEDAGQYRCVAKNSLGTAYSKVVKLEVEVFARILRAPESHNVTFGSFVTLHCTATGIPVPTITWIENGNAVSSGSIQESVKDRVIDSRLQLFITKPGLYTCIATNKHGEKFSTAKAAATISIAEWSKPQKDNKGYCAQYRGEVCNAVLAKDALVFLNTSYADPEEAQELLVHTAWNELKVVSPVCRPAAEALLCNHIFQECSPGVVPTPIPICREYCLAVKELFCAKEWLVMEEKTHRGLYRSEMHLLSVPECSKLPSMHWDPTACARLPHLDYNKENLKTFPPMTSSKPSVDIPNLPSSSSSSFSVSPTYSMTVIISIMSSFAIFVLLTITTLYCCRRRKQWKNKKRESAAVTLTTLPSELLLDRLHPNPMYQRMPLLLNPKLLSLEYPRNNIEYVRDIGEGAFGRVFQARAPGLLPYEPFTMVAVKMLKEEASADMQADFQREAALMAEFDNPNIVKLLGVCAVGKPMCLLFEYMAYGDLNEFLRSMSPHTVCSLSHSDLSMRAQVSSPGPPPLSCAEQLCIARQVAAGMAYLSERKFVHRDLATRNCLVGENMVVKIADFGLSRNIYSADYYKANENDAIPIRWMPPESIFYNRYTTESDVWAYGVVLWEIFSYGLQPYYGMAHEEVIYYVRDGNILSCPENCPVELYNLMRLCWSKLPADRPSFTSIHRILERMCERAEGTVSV

panel of 442 kinases [4] = target: T4, panel of 442 kinases (Homo sapiens, UniProt P07949); settings: kinase RET; for remaining activity at 1 µM: read-out: RET (% of control at 1 µM)
T4 construct: purchased Ambit Biosciences (scanMAXX KINOMEscan)

[5] = 10 µM, read-out: % of control at 10 µM

T4 sequence (P07949 29-1114): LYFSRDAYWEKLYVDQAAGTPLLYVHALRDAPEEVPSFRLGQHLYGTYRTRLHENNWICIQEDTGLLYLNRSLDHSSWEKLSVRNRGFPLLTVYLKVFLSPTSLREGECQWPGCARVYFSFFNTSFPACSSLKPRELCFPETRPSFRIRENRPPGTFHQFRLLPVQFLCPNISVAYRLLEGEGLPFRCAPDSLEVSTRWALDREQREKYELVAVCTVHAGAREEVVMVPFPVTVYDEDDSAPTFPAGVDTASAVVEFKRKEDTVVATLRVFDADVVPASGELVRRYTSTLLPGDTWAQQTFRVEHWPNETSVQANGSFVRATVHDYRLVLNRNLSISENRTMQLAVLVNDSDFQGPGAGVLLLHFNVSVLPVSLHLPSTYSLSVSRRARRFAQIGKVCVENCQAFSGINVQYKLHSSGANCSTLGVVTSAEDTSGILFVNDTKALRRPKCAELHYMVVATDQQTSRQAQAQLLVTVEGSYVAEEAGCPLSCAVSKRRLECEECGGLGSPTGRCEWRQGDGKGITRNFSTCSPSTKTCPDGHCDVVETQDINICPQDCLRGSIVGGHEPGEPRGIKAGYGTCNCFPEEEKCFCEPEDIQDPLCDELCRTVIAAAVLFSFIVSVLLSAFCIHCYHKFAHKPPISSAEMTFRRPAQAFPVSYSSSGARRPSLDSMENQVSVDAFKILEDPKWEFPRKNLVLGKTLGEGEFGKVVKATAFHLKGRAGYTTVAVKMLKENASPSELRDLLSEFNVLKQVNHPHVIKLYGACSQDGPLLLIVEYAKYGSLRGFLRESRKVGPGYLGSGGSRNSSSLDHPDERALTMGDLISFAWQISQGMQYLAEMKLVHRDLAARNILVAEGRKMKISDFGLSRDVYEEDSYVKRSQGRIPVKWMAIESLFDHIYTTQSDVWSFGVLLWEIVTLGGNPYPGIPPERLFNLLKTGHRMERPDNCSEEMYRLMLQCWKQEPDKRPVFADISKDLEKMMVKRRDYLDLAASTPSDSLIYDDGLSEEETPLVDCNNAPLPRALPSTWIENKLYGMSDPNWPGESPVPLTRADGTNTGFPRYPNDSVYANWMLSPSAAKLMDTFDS
T2 sequence (Q00535 whole entry): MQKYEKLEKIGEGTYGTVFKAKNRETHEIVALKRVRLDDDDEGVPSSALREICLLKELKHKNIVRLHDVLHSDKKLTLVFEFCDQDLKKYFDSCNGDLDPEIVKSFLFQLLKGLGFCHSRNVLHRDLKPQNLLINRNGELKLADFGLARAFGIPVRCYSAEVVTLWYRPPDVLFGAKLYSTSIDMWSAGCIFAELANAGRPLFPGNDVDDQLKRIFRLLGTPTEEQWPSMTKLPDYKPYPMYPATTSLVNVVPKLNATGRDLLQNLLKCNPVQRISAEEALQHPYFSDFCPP

SMILES	remaining activity at 1 µM (panel of 442 kinases [1])	remaining activity at 10 µM (panel of 442 kinases [1]; [5])	remaining activity at 1 µM (panel of 442 kinases [2])	remaining activity at 10 µM (panel of 442 kinases [2]; [5])	remaining activity at 1 µM (panel of 442 kinases [3])	remaining activity at 10 µM (panel of 442 kinases [3]; [5])	remaining activity at 1 µM (panel of 442 kinases [4])	remaining activity at 10 µM (panel of 442 kinases [4]; 10 µM, read-out: RET (% of control at 10 µM))
Nc1cc(C(F)(F)F)c(-c2cc(N3CCOCC3)nc(N3CCOCC3)n2)cn1 [Buparlisib]	95%	100%	100%	99%	86%	55%	97%	100%
Cn1c(=O)n(-c2ccc(C(C)(C)C#N)cc2)c2c3cc(-c4cnc5ccccc5c4)ccc3ncc21 [Dactolisib, 2-methyl-2-[4-(3-methyl-2-oxo-8-quinolin-3-yl-2,3-dihydroimidazo[4,5-c]quinolin-1-yl)-phenyl] propionitrile]	63%	–	100%	–	100%	–	100%	–
COc1ncc(-c2ccc3nccc(-c4ccnnc4)c3c2)cc1NS(=O)(=O)c1ccc(F)cc1F [Omipalisib]	100%	–	100%	–	100%	–	94%	–
FC(F)c1nc2ccccc2n1-c1nc(N2CCOCC2)nc(N2CCOCC2)n1 [ZSTK474, 2-(difluoromethyl)-1-[4,6-di(4-morpholinyl)-1,3,5-triazin-2-yl]-1H-benzimidazole]	100%	–	100%	–	100%	–	100%	–
